Consider seven compounds from publication PMC3794980, “Identification of Conserved and HLA Promiscuous DENV3 T-Cell Epitopes” (PLoS Neglected Tropical Diseases, 2013).

Like-named read-outs stand apart in the source and are kept apart here. Where no end group is shown, it is not given here.

The target in one assay is DRB1*0901 (Homo sapiens, UniProt P01903+P01911, A100R/A103E/D57H/D86V/F55Y/F60I/F76Y/I96F/K127E/L162R/M171V/P40D/Q125H/Q99R/R33Q/R42F/S133A/S66N/T210M/V115G/W38K/Y107V/Y59G/Y89S). The assay can be described thus: biochemical. Particulars: competitive inhibition of radiolabeled standard peptide, read-out: Binding Affinity (nM) DRB1*0901. Format: binding.
A further assay has as its target DRB3*0101 (Homo sapiens, UniProt P01903+P79483). The assay can be described thus: biochemical. It is filed as binding.
The target of the next assay is DRB1*0701 (Homo sapiens, UniProt P01903+P01911, A100R/A102G/A103Q/D57E/D86V/E43K/F76Y/K127E/L162R/M171V/P40G/Q125H/Q99D/R33Q/R42Y/R54Q/S133A/S66F/T210M/V115G/Y107V/Y59L/Y89S). The assay can be described thus: biochemical. Format: binding.
The target of a further assay is DRB1*0401 (Homo sapiens, UniProt P01903+P01911, A100K/A169T/F76Y/I96L/K127E/L162R/M171V/N62H/P40V/Q125Y/R42H/S133A/S149N/S66Y/V115G/V209L/W38E). The assay can be described thus: biochemical. Format: binding.
The next assay has as its target DRB1*1302 (Homo sapiens, UniProt P01903+P01911, A100E/A169T/K41T/L162R/M171V/P40S/Q125H/Q178H/Q39Y/Q99D/R42S/S66N/T262R/V115G/W38E/Y61H). Briefly: biochemical. It is filed as binding. Particulars: competitive inhibition of radiolabeled standard peptide, read-out: Binding Affinity (nM) DRB1*1302.
In another assay the target is DRB1*1101 (Homo sapiens, UniProt P01903+P01911, A100R/A169T/A87E/I96F/K41T/L162R/M171V/P40S/Q125H/Q178H/Q39Y/Q99D/R42S/S66Y/T262R/V115G/W38E). The assay can be described thus: biochemical. It is filed as binding.
DRB1*1101, sequence (P01903 26-254, other chains not shown): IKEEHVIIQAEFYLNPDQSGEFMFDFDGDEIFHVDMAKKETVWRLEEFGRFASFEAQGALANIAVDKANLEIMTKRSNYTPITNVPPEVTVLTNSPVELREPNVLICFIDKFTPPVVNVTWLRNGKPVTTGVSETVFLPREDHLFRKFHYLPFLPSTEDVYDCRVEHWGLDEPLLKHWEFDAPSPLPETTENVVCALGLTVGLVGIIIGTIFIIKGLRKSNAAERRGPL
The next assay deals with DRB4*0101 (Homo sapiens, UniProt P01903+P13762, G164S). Briefly: biochemical. Format: binding.
Another assay addresses DRB1*0404 (Homo sapiens, UniProt P01903+P01911, A100R/A169T/F76Y/I96L/K127E/L162R/M171V/N62H/P40V/Q125Y/R42H/S133A/S149N/S66Y/V209L/W38E). The assay can be described thus: biochemical. It is filed as binding.
The next assay concerns the target DRB1*1501 (Homo sapiens, UniProt P01903+P01911). The assay can be described thus: biochemical. It is filed as binding.
A further assay has as its target DRB1*0802 (Homo sapiens, UniProt P01903+P01911, A100R/A103L/A169T/F76Y/H45Y/I96F/K41T/L162R/M171V/P40S/Q125H/Q178H/Q39Y/Q99D/R218S/R42G/S66Y/V115G/W38E). Briefly: biochemical. Format: binding.
Another assay has as its target DRB1*0405 (Homo sapiens, UniProt P01903+P01911, A100R/A169T/D86S/F76Y/I96L/K127E/L162R/M171V/N62H/P40V/Q125Y/R42H/S133A/S149N/S66Y/V115G/V209L/W38E). Briefly: biochemical. Format: binding.
The next assay has as its target DRB1*0301 (Homo sapiens, UniProt P01903+P01911, A100K/A102G/A103R/A169T/F55Y/I96L/K41T/L162R/M171V/P40S/Q125H/Q178H/Q39Y/R42S/S66N/T106N/T262R/W38E/Y61H). Briefly: biochemical. It is filed as binding.
A further assay has as its target DRB1*0101 (Homo sapiens, UniProt P01903+P01911, A100R/D57E/F55L/F60I/F76Y/I96L/L162R/M171V/P40L/Q125E/R42F/V115G/Y59C). Briefly: biochemical. It is filed as binding.
Another assay has as its target DRB5*0101 (Homo sapiens, UniProt P01903+Q30154). The assay can be described thus: biochemical. Format: binding.
Assay [1] deals with T1, HLA-A*0201 (HLA-A2:Ig fusion protein) (Homo sapiens, UniProt P04439, D140Y/D185E/D98H/E176V/E277Q/G131W/G231S/I119V/I121R/I166T/I218V/L300P/L318F/N151K/N90K/P208A/P217A/Q86G/Q94H/R138H/R169H/T345S).
T1 construct: two extracellular portions of the major histocompatibility complex (MHC) class I HLA-A2 domains fused to the […] of a mouse IgG1 antibody; purchased BD Biosciences (HLA-A2:Ig); Fitzgerald Industries (β2-microglobulin)
The assay can be described thus: Competitive binding assay using HLA-A2:Ig fusion protein (fluorescence polarization). As for the experimental part:
The labeled peptide ([…]) was commercially synthesized by GenScript Corporation as a reference peptide for the binding assay. A fluorescein moiety was introduced into position P8 of the designed peptide ([…]). […] The lyophilized labeled peptide was diluted in 100% DMF (Dimethylformamide) to a final concentration of 10 mM. Subsequent dilutions were carried out using 0.5 mg/ml bovine-γ-globulin (BGG) in 1×PBS.
Soluble HLA-A2:Ig dimer complexes were obtained from BD Biosciences. This fusion protein consists of two extracellular portions of the major histocompatibility complex (MHC) class I HLA-A2 domains fused to the […] of a mouse IgG1 antibody. Additional β2-microglobulin (Fitzgerald Industries) was added to the binding assays to retain the fusion protein in a functional state. […] The competitive binding assays were carried out at room temperature for an incubation period of 3 days.
Both labeled and unlabeled peptides were added to the reaction mixture before the HLA-A2:Ig fusion protein, ensuring that both peptides were presented simultaneously to the HLA molecule. To avoid peptide photobleaching, the reaction mixture was incubated within aluminum foil covered microcentrifuge tubes. After the 3 days incubation period, 20 µl of the reaction mixture was loaded into individual wells of a black, non-binding surface (NBS) 384 well plate (Corning). Controls included only buffer (blank), protein and pFITC. Each experiment was performed in quadruplicate and reported as the mean with standard deviation.
In general terms: Polarisation of emitted light reports the rotation of a fluorescent probe.

Setting [2] is: predicted 9-mer tested, fluorescence polarization competition with fluorescein-labeled […], room temperature, 3 days, quadruplicate, read-out: Binding affinity.

DRB1*1302, sequence (P01903 26-254 limits assumed, other chains not shown): as the sequence (P01903 26-254, other chains not shown) above
DRB1*0301, sequence (P01903 26-254, other chains not shown): as above

With `CC[C@H](C)[C@H](NC(=O)[C@H](Cc1c[nH]c2ccccc12)NC(=O)[C@H](Cc1ccc(O)cc1)NC(=O)CNC(=O)[C@H](CCSC)NC(=O)[C@H](CC(=O)O)NC(=O)[C@H](C)NC(=O)[C@H](Cc1c[nH]cn1)NC(=O)[C@@H](NC(=O)[C@H](C)N)C(C)C)C(=O)N[C@@H](CCC(=O)O)C(=O)N[C@@H](CO)C(=O)N[C@@H](CCC(N)=O)C(=O)N[C@@H](CCCCN)C(=O)N[C@@H](CC(N)=O)C(=O)O` [NS1 193-207], the IC50 on DRB1*0901 ('-' distinct from ND) was found to be 9890 nM; on DRB3*0101, 24 nM; against DRB1*0701, 7.97 µM; against DRB1*0401, 3.54 µM; at DRB1*1302 ('-' distinct from ND), 33 nM; against DRB1*1101 it was 13.9 µM. Also, the IC50 on DRB4*0101 is 180 nM; against DRB1*0404 it was 5.81 µM; at DRB1*1501, 6340 nM; at DRB1*0802, 12900 nM; at DRB1*0405, 3.24 µM; against DRB1*0301 it was 2590 nM. For the same compound, the IC50 on DRB1*0101 was 1200 nM; on DRB5*0101, 10400 nM.

With `CC(C)C[C@H](NC(=O)[C@H](C)NC(=O)[C@H](CC(C)C)NC(=O)[C@@H]1CCCN1)C(=O)N[C@@H](CCCCN)C(=O)N[C@@H](CCC(=O)O)C(=O)N[C@@H](Cc1ccccc1)C(=O)N[C@@H](CCCCN)C(=O)N[C@@H](CC(=O)O)C(=O)N[C@@H](Cc1ccccc1)C(=O)N[C@@H](C)C(=O)N[C@@H](C)C(=O)NCC(=O)N[C@@H](CCCNC(=N)N)C(=O)N[C@@H](CCCCN)C(=O)O` [NS3 605-619], the IC50 at DRB1*0901 (DRB1*0901) was found to be 9320 nM; on DRB3*0101, 3380 nM; against DRB1*0701, 3.45 µM; against DRB1*0401, 4.73 µM; at DRB1*1302 (DRB1*1302) it was 19600 nM; at DRB1*1101 it was 8.89 µM. Besides, the IC50 came out at 1360 nM at DRB4*0101; 2.22 µM against DRB1*0404; 28 nM on DRB1*1501; 37 nM against DRB1*0802; 5.55 µM on DRB1*0405; 4440 nM on DRB1*0301. Further, the figures for the IC50 at DRB1*0101 and against DRB5*0101 were 4350 nM and 20 nM, respectively.

As for `CC(C)C[C@H](NC(=O)[C@@H](N)CCCCN)C(=O)N[C@@H](CC(N)=O)C(=O)N[C@@H](CC(=O)O)C(=O)N[C@@H](Cc1c[nH]c2ccccc12)C(=O)N[C@@H](CC(=O)O)C(=O)N[C@@H](Cc1ccccc1)C(=O)N[C@H](C(=O)N[C@H](C(=O)O)C(C)C)C(C)C` [NS3_399–407], in assay [1] (setting [2]), the IC50 is 110 nM.

Take EGKVVQYENLKYTVI [Envelope 126-140]: the IC50 on DRB1*0901 ('-' distinct from ND) was determined as 3860 nM; against DRB3*0101, 2070 nM; against DRB1*0701, 2.31 µM; against DRB1*0401 it was 1.38 µM; on DRB1*1302 ('-' distinct from ND), 1480 nM; on DRB1*1101 it was 8.98 µM. Moreover, the IC50 at DRB4*0101 was determined as 59 nM; against DRB1*0404, 6.05 µM; against DRB1*1501, 21 nM; at DRB1*0802, 37 nM; at DRB1*0405, 0.09 µM; at DRB1*0301 it was 692 nM. The IC50 on DRB1*0101 came out at 980 nM; against DRB5*0101, 2470 nM.

As for GLFGKGSLV, in [1] (setting [2]), the IC50 is 2.9 nM.

As for KLTDWDFVV [DENV4], the IC50 in assay [1] was 61 nM.

Take RTNDWDFVV [DENV2 (1)]: the IC50 in assay [1] (read-out: IC50) came out at 167 nM.
